In experiment [1] the target is T1, ERR1 (also known as ERR-α or ERR-1) (Homo sapiens, UniProt P11474).
T1 sequence (P11474 193-421 limits assumed): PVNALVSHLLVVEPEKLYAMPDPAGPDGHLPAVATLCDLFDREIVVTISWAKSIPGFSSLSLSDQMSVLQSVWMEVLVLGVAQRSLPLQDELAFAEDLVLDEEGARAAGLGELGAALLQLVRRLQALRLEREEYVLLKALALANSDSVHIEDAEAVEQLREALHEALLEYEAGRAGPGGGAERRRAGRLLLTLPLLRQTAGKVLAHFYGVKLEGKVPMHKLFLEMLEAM
Put plainly: TR-FRET assay (disruption of co-activator peptide binding to ERR1 LBD). The experiment is classed as biochemical. The note with it: 6 nM 6His-ERR1LBD, 6 nM GST-SRC-2 peptide; average of 3 independent experiments. The essentials: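 Homogeneous TR-FRET measuring displacement of GST-hSRC2 co-activator peptide (6 nM) from His-tagged ERR1 LBD (6 nM), detected with α-GST Eu cryptate (30 nM) and α-His-XL665 (7.5 nM). Buffer 25 mM Tris pH 8, 2.5 mM Hepes, 20 mM KCl, 1 mM DTT, 0.05 mg/mL delipidated BSA; equilibration 4-18 h at 25° C. Hyperbolic dose-response fit, mean of 3 experiments.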
(In general: In TR-FRET formats the signal depends on donor and acceptor labels being close together.)

Experiment [2] relates to Zucker fa/fa male rats. Put plainly: Zucker fa/fa Rat Model Assay. The experiment is classed as in vivo. The settings on record: po, 120 h, 10 mg/kg orally once a day for 4 days. The text has this:
Zucker fa/fa is a monogenic model of frank diabetes due to a mutation on the fa gene truncating the leptin receptor and preventing its interaction with its peptide hormone. This mutation results in a hyperphagic phenotype and the rodent develops obesity, hyperlipidemia, fasting hyperglycemia and insulin resistance. Zucker fa/fa male rats were received at four weeks of age and allowed to acclimate for one week. At five weeks of age the animals were single housed in cages in a temperature-controlled room with 12-hour light/dark cycle. The rats were allowed ad libitum access to water and food and throughout the study were maintained on a Purina 5008 diet. Animals were sorted based primarily on fed insulin levels and circulating triglycerides. Animals were dosed orally once a day (10 mg/kg) in the morning for 4 days. The vehicle used was either 20% HPβCD (Hydroxypropyl Beta Cyclodextrin) or 15% Vitamin E/30% PEG-400 (Polyethylene Glycol 400). Fed insulin and triglycerides were measured using blood collected from the tail vein at day 5. Serum plasma samples were prepared by centrifugation in EDTA (Ethylenediaminetetraacetic acid) containing tubes, transferred into 96 well plates and stored at −80° C.

Where [3] appears, read: blood from tail vein at day 5, read-out: % Change Fed Insulin Levels.
Setting [4] is: blood from tail vein at day 5, read-out: % Change Fed Triglyceride Levels.

The term EC50 denotes the concentration giving half of the maximal effect. Low values mean higher potency in that assay, high ones lower potency in that assay.

Read-outs that look alike come from different tables or passages of the source.

Turning to `C[C@H](N)CN1C(=O)S/C(=C\c2ccc3c(cnn3Cc3ccc(Cl)cc3C(F)(F)F)c2)C1=O` [Compound 155, 3-[(2S)-2-Aminopropyl]-(5Z)-5-({1-[4-chloro-2-(trifluoromethyl)benzyl]-1H-indazol-5-yl}methylidene)-1,3-thiazolidine-2,4-dione], the EC50 in experiment [1] was 24 nM. The change in vivo at 10 mg/kg is -60% in experiment [2] (setting [3]) and -55% in experiment [2] (setting [4]).
On to `CS(=O)(=O)NN1C(=O)S/C(=C\c2ccc3c(cnn3Cc3ccc(Cl)cc3C(F)(F)F)c2)C1=O` [Compound 361, N-[(5Z)-5-({1-[4-Chloro-2-(trifluoromethyl)benzyl]-1H-indazol-5-yl}methylidene)-2,4-dioxo-1,3-thiazolidin-3-yl]methanesulfonamide], for which the EC50 in experiment [1] came out at 13 nM. For the same compound, the change in vivo at 10 mg/kg in experiment [2] (setting [3]) was -58%; in experiment [2] (setting [4]), -43%.
For `O=C1CN(CCN2C(=O)S/C(=C\c3ccc4c(cnn4Cc4ccc(Cl)cc4C(F)(F)F)c3)C2=O)CCN1` [Compound 79, (5Z)-5-({1-[4-Chloro-2-(trifluoromethyl)benzyl]-1H-indazol-5-yl}methylidene)-3-[2-(3-oxopiperazin-1-yl)ethyl]-1,3-thiazolidine-2,4-dione] the same measures were 30 nM, -20% and 34%.
In the case of `Cc1nn(Cc2ccc(Cl)cc2C(F)(F)F)c2ccc(/C=C3\SC(=O)N(CC(=O)O)C3=O)cc12` [Compound 36, [(5Z)-5-({1-[4-Chloro-2-(trifluoromethyl)benzyl]-3-methyl-1H-indazol-5-yl}methylidene)-2,4-dioxo-1,3-thiazolidin-3-yl]acetic acid], the response in experiment [1] was half-maximal at 28 nM (EC50). For the same compound, the change in vivo at 10 mg/kg in experiment [2] (setting [3]) was -18%; in experiment [2] (setting [4]) it was -4%.
Take `O=C1S/C(=C\c2ccc3c(cnn3Cc3ccc(Cl)cc3C(F)(F)F)c2)C(=O)N1C1CCN(CCO)CC1` [Compound 148, (5Z)-5-({1-[4-Chloro-2-(trifluoromethyl)benzyl]-1H-indazol-5-yl}methylidene)-3-[1-(2-hydroxyethyl)piperidin-4-yl]-1,3-thiazolidine-2,4-dione]: in experiment [1], the EC50 was found to be 15 nM. The values for the change in vivo at 10 mg/kg in experiment [2] (setting [3]) and in experiment [2] (setting [4]) were -77% and -40%, respectively.
For the compound `O=C1S/C(=C\c2ccc3c(cnn3Cc3ccc(Cl)cc3C(F)(F)F)c2)C(=O)N1Cc1nn[nH]n1` [Compound 72, (5Z)-5-({1-[4-Chloro-2-(trifluoromethyl)benzyl]-1H-indazol-5-yl}methylidene)-3-(2H-tetrazol-5-ylmethyl)-1,3-thiazolidine-2,4-dione], in experiment [1], the response was half-maximal at 13 nM (EC50). The change in vivo at 10 mg/kg in experiment [2] (setting [3]) is -44%; in experiment [2] (setting [4]), -51%.
In experiment [1], `CC(=O)NS(=O)(=O)CN1C(=O)S/C(=C\c2ccc3c(cnn3Cc3ccc(Cl)cc3C(F)(F)F)c2)C1=O` [Compound 166, N-({[(5Z)-5-({1-[4-Chloro-2-(trifluoromethyl)benzyl]-1H-indazol-5-yl}methylidene)-2,4-dioxo-1,3-thiazolidin-3-yl]methyl}sulfonyl)acetamide] displayed an EC50 of 8 nM. Also, the change in vivo at 10 mg/kg in experiment [2] (setting [3]) was -58%; in experiment [2] (setting [4]), -37%.
For `COc1ccc(Cn2ncc3cc(/C=C4\SC(=O)N(CCN5CCOCC5)C4=O)ccc32)c(C(F)(F)F)c1` [Compound 8, (5Z)-5-[(1-{[4-(Methyloxy)-2-(trifluoromethyl)phenyl]methyl}-1H-indazol-5-yl)methylidene]-3-(2-morpholin-4-ylethyl)-1,3-thiazolidine-2,4-dione] the same measures were 8 nM, -21% and -19%.
Turning to `O=C(O)CN1C(=O)S/C(=C\c2ccc3c(cnn3Cc3ccc(Cl)cc3C(F)(F)F)c2)C1=O` [Compound 4, (5Z)-5-{[1-(4-Chloro-2-trifluoromethylbenzyl)-1H-indazol-5-yl]methylidene}-2,4-dioxothiazolidin-3-ylacetic acid], in experiment [1], the response was half-maximal at 9 nM (EC50). The change in vivo at 10 mg/kg is -50% in experiment [2] (setting [3]) and -14% in experiment [2] (setting [4]).
On to `Cc1nn(Cc2ccc(Cl)cc2C(F)(F)F)c2ccc(/C=C3\SC(=O)N(CC(=O)NS(=O)(=O)N4CCCC4)C3=O)cc12` [Compound 40, 2-[(5Z)-5-({1-[4-Chloro-2-(trifluoromethyl)benzyl]-3-methyl-1H-indazol-5-yl}methylidene)-2,4-dioxo-1,3-thiazolidin-3-yl]-N-(pyrrolidin-1-ylsulfonyl)acetamide], for which, in experiment [1], a half-maximal effect (EC50) was put at 54 nM. Moreover, the change in vivo at 10 mg/kg in experiment [2] (setting [3]) is -10%; in experiment [2] (setting [4]), -23%.
`O=C1S/C(=C\c2ccc3c(cnn3Cc3ccc(Cl)cc3C(F)(F)F)c2)C(=O)N1C[C@H]1CN2CCC[C@H]2CO1` [Compound 202, (5Z)-5-({1-[4-Chloro-2-(trifluoromethyl)benzyl]-1H-indazol-5-yl}methylidene)-3-[(3R,8aS)-hexahydro-1H-pyrrolo[2,1-c] [1,4]oxazin-3-ylmethyl]-1,3-thiazolidine-2,4-dione] registered an EC50 in experiment [1] of 35 nM. Also, the change in vivo at 10 mg/kg is -3% in experiment [2] (setting [3]) and -26% in experiment [2] (setting [4]).
For `COc1ccc(Cn2ncc3cc(/C=C4\SC(=O)N(CC(=O)O)C4=O)ccc32)c(C(F)(F)F)c1` [Compound 19, [(5Z)-5-({1-[4-Methoxy-2-(trifluoromethyl)benzyl]-1H-indazol-5-yl}methylidene)-2,4-dioxo-1,3-thiazolidin-3-yl]acetic acid] the same measures were 9 nM, -9% and 21%.
For `O=C(O)CN1C(=O)S/C(=C\c2ccc3c(cnn3Cc3ccc(C(F)(F)F)cc3C(F)(F)F)c2)C1=O` [Compound 59, [(5Z)-5-({1-[2,4-Bis(trifluoromethyl)benzyl]-1H-indazol-5-yl}methylidene)-2,4-dioxo-1,3-thiazolidin-3-yl]acetic acid], in experiment [1], the EC50 was 26 nM. Besides, the change in vivo at 10 mg/kg in experiment [2] (setting [3]) is -23%; in experiment [2] (setting [4]), -25%.
Compound `COc1nn(Cc2ccc(Cl)cc2C(F)(F)F)c2ccc(/C=C3\SC(=O)N(CCN4CCCC4)C3=O)cc12` [Compound 27, (5Z)-5-({1-[4-Chloro-2-(trifluoromethyl)benzyl]-3-methoxy-1H-indazol-5-yl}methylidene)-3-(2-pyrrolidin-1-ylethyl)-1,3-thiazolidine-2,4-dione] came in with an EC50 in experiment [1] of 27 nM. Also, the change in vivo at 10 mg/kg turned out to be 9% in experiment [2] (setting [3]) and 0% in experiment [2] (setting [4]).
In the same order, the values of `O=C(O)CN1C(=O)S/C(=C\c2ccc3c(c2)c(Cl)nn3Cc2ccc(Cl)cc2C(F)(F)F)C1=O` [Compound 287, [(5Z)-5-({1-[4-Chloro-2-(trifluoromethyl)benzyl]-3-chloro-1H-indazol-5-yl}methylidene)-2,4-dioxo-1,3-thiazolidin-3-yl]acetic acid] are 22 nM, -53% and -36%.
In experiment [1], `O=C(CN1C(=O)S/C(=C\c2ccc3c(cnn3Cc3ccc(Cl)cc3C(F)(F)F)c2)C1=O)NS(=O)(=O)N1CCCC1` [Compound 38, 2-[(5Z)-5-({1-[4-Chloro-2-(trifluoromethyl)benzyl]-1H-indazol-5-yl}methylidene)-2,4-dioxo-1,3-thiazolidin-3-yl]-N-(pyrrolidin-1-ylsulfonyl)acetamide] gave a half-maximal effective concentration (EC50) of 25 nM. For the same compound, the change in vivo at 10 mg/kg in experiment [2] (setting [3]) is -47%; in experiment [2] (setting [4]) it was 1%.

For the origin of these results see US8796256B2 (Janssen Pharmaceutica NV, priority 2010, dated 2014).
